# Values of other authors, collected in patent US12708613B2, “Methods for improving physical exercise performance” (NOMIO NUTRITION AB, priority 2020, dated 2026).
# Test system: mice
compound,measurement,setting,value
"C[S+]([O-])CCCCN=C=S (centres unmarked) [sulforaphane, 1-Isothiocyanato-4-(methanesulfinyl)butane]",effect on glucose levels,mice models,no effect
same,endurance,"mice, injected (intraperitoneally, 25 mg/kg body weight)",improved endurance
